Assay results: patent publication US6355799B1, “Substituted benzene compounds, process for their preparation, and herbicidal and defoliant compositions containing them” (ISK Americas Incorporated, priority 1997, dated 2002)

Assays:
Format in all cases: in vivo
[1] = tested on: ivyleaf morningglory (Ipomoea hederacea, IPOHE); assay: Post-emerge test, greenhouse herbicide activity screening; details: rating scale 0-100 (0 no damage, 100 complete death), 14 days after application
Summary of the method: (§1)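 Compounds in acetone were track-sprayed at 15-1000 g ai/ha (187 l/ha) on sandy loam pots: pre-emerge one day after seeding, post-emerge at 2-3 leaf stage with 0.25% v/v non-ionic surfactant. Phytotoxicity was rated 14 days later on a 0 (no damage) to 100 (complete death) scale.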

[2] = tested on: barnyardgrass (Echinochloa crus-galli, ECHCG); assay: as above; details: rating scale 0-100 (0 no damage, 100 complete death), 14 days after application
Summary of the method: as §1

[3] = tested on: lambsquarters (Chenopodium album, CHEAL); assay: as above; details: rating scale 0-100 (0 no damage, 100 complete death), 14 days after application
Summary of the method: as §1

[4] = tested on: green foxtail (Setaria viridis, SETVI); assay: as above; details: rating scale 0-100 (0 no damage, 100 complete death), 14 days after application
Summary of the method: as §1

[5] = tested on: redroot pigweed (Amaranthus retroflexus, AMARE); assay: as above; details: rating scale 0-100 (0 no damage, 100 complete death), 14 days after application
Summary of the method: as §1

[6] = tested on: johnsongrass (Sorghum halepense, SORHA); assay: as above; details: rating scale 0-100 (0 no damage, 100 complete death), 14 days after application
Summary of the method: as §1

[7] = tested on: large crabgrass (Digitaria sanguinalis, DIGSA); assay: as above; details: rating scale 0-100 (0 no damage, 100 complete death), 14 days after application
Summary of the method: as §1

[8] = tested on: velvetleaf (Abutilon theophrasti, ABUTH); assay: as above; details: rating scale 0-100 (0 no damage, 100 complete death), 14 days after application
Summary of the method: as §1

[9] = tested on: sicklepod (Cassia obtusifolia, CASOB); assay: as above; details: rating scale 0-100 (0 no damage, 100 complete death), 14 days after application
Summary of the method: as §1

[10] = tested on: upland rice (Oryza sp., var. Tebonnet, RICE); assay: Pre-emerge test, crop safety; details: rating scale 0-100, 14 days after application
Summary of the method: (§2)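 Plants grown in 10 cm pots of sandy loam mix received acetone-dissolved compounds through a moving flat-fan nozzle. Doses ranged from 15 to 1000 g ai/ha. Pre-emerge pots were seeded one day earlier, post-emerge pots 8–21 days earlier. Fourteen days on, each pot was graded 0–100 for damage.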

[11] = tested on: field corn (Zea mays L., var. Dekalb 535, CORN); assay: Pre-emerge test, crop safety; details: rating scale 0-100, 14 days after application
Summary of the method: as §2

[12] = tested on: ivyleaf morningglory (Ipomoea hederacea, IPOHE); assay: Pre-emerge test, greenhouse herbicide activity screening; details: rating scale 0-100, 14 days after application
Summary of the method: (§3)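 Applied at 15–1000 g ai/ha from acetone in 187 l/ha spray volume. Post-emergence applications included 0.25% v/v non-ionic surfactant and reached plants sown 8–21 days before. Pre-emergence applications were incorporated by surface watering. Efficacy or crop damage was rated on a 0–100 scale after 14 days.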

[13] = tested on: barnyardgrass (Echinochloa crus-galli, ECHCG); assay: as above; details: rating scale 0-100, 14 days after application
Summary of the method: as §3

[14] = tested on: lambsquarters (Chenopodium album, CHEAL); assay: as above; details: rating scale 0-100, 14 days after application
Summary of the method: as §3

[15] = tested on: green foxtail (Setaria viridis, SETVI); assay: as above; details: rating scale 0-100, 14 days after application
Summary of the method: as §3

[16] = tested on: johnsongrass (Sorghum halepense, SORHA); assay: as above; details: rating scale 0-100, 14 days after application
Summary of the method: as §3

[17] = tested on: large crabgrass (Digitaria sanguinalis, DIGSA); assay: as above; details: rating scale 0-100, 14 days after application
Summary of the method: as §3

[18] = tested on: velvetleaf (Abutilon theophrasti, ABUTH); assay: as above; details: rating scale 0-100, 14 days after application
Summary of the method: as §3

[19] = tested on: sicklepod (Cassia obtusifolia, CASOB); assay: as above; details: rating scale 0-100, 14 days after application
Summary of the method: as §3

[20] = tested on: redroot pigweed (Amaranthus retroflexus, AMARE); assay: as above; details: rating scale 0-100, 14 days after application
Summary of the method: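 Visual ratings on a 0-100 scale (0 no damage, 100 all plants dead) were taken at 14 days after treatment. Rates of 15-1000 g ai/ha in acetone, 187 l/ha, were sprayed onto soil one day after planting (pre-emerge) or onto 2-3 leaf plants with 0.25% v/v surfactant (post-emerge).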

[21] = tested on: upland rice (Oryza sp., var. Tebonnet, RICE); assay: Post-emerge test, crop safety; details: rating scale 0-100 (0 no damage, 100 complete death), 14 days after application
Summary of the method: as §3

[22] = tested on: field corn (Zea mays L., var. Dekalb 535, CORN); assay: Post-emerge test, crop safety; details: rating scale 0-100 (0 no damage, 100 complete death), 14 days after application
Summary of the method: as §3

Compound: COc1c(Cl)cc(F)c(-n2c(=O)cc(C(F)(F)F)n(C)c2=O)c1CC(Cl)C(=O)OCCOc1ccccc1 (single isomer, unassigned) [14-28]
- Post-emerge Herbicidal Activity, phytotoxicity rating IPOHE ([1]; Rate 63 g ai/ha): 50
- Post-emerge Herbicidal Activity, phytotoxicity rating IPOHE ([1]; Rate 250 g ai/ha): 70
- Post-emerge Herbicidal Activity, phytotoxicity rating ECHCG ([2]; Rate 63 g ai/ha): 100
- Post-emerge Herbicidal Activity, phytotoxicity rating ECHCG ([2]; Rate 250 g ai/ha): 100
- Post-emerge Herbicidal Activity, phytotoxicity rating CHEAL ([3]; Rate 63 g ai/ha): 95
- Post-emerge Herbicidal Activity, phytotoxicity rating CHEAL ([3]; Rate 250 g ai/ha): 100
- Post-emerge Herbicidal Activity, phytotoxicity rating SETVI ([4]; Rate 63 g ai/ha): 0
- Post-emerge Herbicidal Activity, phytotoxicity rating SETVI ([4]; Rate 250 g ai/ha): 30
- Post-emerge Herbicidal Activity, phytotoxicity rating AMARE ([5]; Rate 63 g ai/ha): 90
- Post-emerge Herbicidal Activity, phytotoxicity rating AMARE ([5]; Rate 250 g ai/ha): 100
- Post-emerge Herbicidal Activity, phytotoxicity rating SORHA ([6]; Rate 63 g ai/ha): 0
- Post-emerge Herbicidal Activity, phytotoxicity rating SORHA ([6]; Rate 250 g ai/ha): 50
- Post-emerge Herbicidal Activity, phytotoxicity rating DIGSA ([7]; Rate 63 g ai/ha): 20
- Post-emerge Herbicidal Activity, phytotoxicity rating DIGSA ([7]; Rate 250 g ai/ha): 50
- Post-emerge Herbicidal Activity, phytotoxicity rating ABUTH ([8]; Rate 63 g ai/ha): 100
- Post-emerge Herbicidal Activity, phytotoxicity rating ABUTH ([8]; Rate 250 g ai/ha): 100
- Post-emerge Herbicidal Activity, phytotoxicity rating CASOB ([9]; Rate 63 g ai/ha): 30
- Post-emerge Herbicidal Activity, phytotoxicity rating CASOB ([9]; Rate 250 g ai/ha): 30
- Pre-emerge phytotoxicity rating, crop damage RICE ([10]; 63 g ai/ha): 0
- Pre-emerge phytotoxicity rating, crop damage RICE ([10]; 250 g ai/ha): 0
- Pre-emerge phytotoxicity rating, crop damage CORN ([11]; 63 g ai/ha): 0
- Pre-emerge phytotoxicity rating, crop damage CORN ([11]; 250 g ai/ha): 20
- Pre-emerge herbicidal activity, phytotoxicity rating IPOHE ([12]; 63 g ai/ha): 0
- Pre-emerge herbicidal activity, phytotoxicity rating IPOHE ([12]; 250 g ai/ha): 0
- Pre-emerge herbicidal activity, phytotoxicity rating ECHCG ([13]; 63 g ai/ha): 0
- Pre-emerge herbicidal activity, phytotoxicity rating ECHCG ([13]; 250 g ai/ha): 20
- Pre-emerge herbicidal activity, phytotoxicity rating CHEAL ([14]; 63 g ai/ha): 0
- Pre-emerge herbicidal activity, phytotoxicity rating CHEAL ([14]; 250 g ai/ha): 95
- Pre-emerge herbicidal activity, phytotoxicity rating SETVI ([15]; 63 g ai/ha): 0
- Pre-emerge herbicidal activity, phytotoxicity rating SETVI ([15]; 250 g ai/ha): 0
- Pre-emerge herbicidal activity, phytotoxicity rating SORHA ([16]; 63 g ai/ha): 0
- Pre-emerge herbicidal activity, phytotoxicity rating SORHA ([16]; 250 g ai/ha): 40
- Pre-emerge herbicidal activity, phytotoxicity rating DIGSA ([17]; 63 g ai/ha): 0
- Pre-emerge herbicidal activity, phytotoxicity rating DIGSA ([17]; 250 g ai/ha): 100
- Pre-emerge herbicidal activity, phytotoxicity rating ABUTH ([18]; 63 g ai/ha): 0
- Pre-emerge herbicidal activity, phytotoxicity rating ABUTH ([18]; 250 g ai/ha): 80
- Pre-emerge herbicidal activity, phytotoxicity rating CASOB ([19]; 63 g ai/ha): 0
- Pre-emerge herbicidal activity, phytotoxicity rating CASOB ([19]; 250 g ai/ha): 0
- Pre-emerge herbicidal activity, phytotoxicity rating AMARE ([20]; 63 g ai/ha): 90
- Pre-emerge herbicidal activity, phytotoxicity rating AMARE ([20]; 250 g ai/ha): 100
- Post-emerge phytotoxicity rating RICE (crop damage) ([21]; Rate 63 g ai/ha): 0
- Post-emerge phytotoxicity rating RICE (crop damage) ([21]; Rate 250 g ai/ha): 40
- Post-emerge phytotoxicity rating CORN (crop damage) ([22]; Rate 63 g ai/ha): 10
- Post-emerge phytotoxicity rating CORN (crop damage) ([22]; Rate 250 g ai/ha): 70
